# Measured values: ChEMBL document CHEMBL3826947, “New 4-Acyl-1-phenylaminocarbonyl-2-phenylpiperazine Derivatives as Potential Inhibitors of Adenovirus Infection. Synthesis, Biological Evaluation, and Structure-activity Relationships” (J Med Chem, 2016)
# Key:
# Human adenovirus 5 [1] = experiment: Antiviral activity against HAdV5 infected in 293beta5 cells assessed as inhibition of plaque formation at 10 uM after 7 days by GFP reporter gene assay relative to control; assay type: functional; conditions: Human mastadenovirus C, 293beta5, 168 h
# Human adenovirus 5 [2] = experiment: Antiviral activity against HAdV5 infected in human A549 cells assessed as inhibition of viral entry at 50 uM preincubated for 45 mins followed by cell addition measured after 48 hrs by GFP reporter gene assay relative to control; assay type: functional; conditions: Human mastadenovirus C
# [3] = Cytotoxicity against human A549 cells assessed as cell viability after 48 hrs by Alamar blue assay; assay type: cell-based
SMILES,inhibition at 10 µM (Human adenovirus 5 [1]) [%],inhibition at 50 µM (Human adenovirus 5 [2]) [%],CC50 at 48 h [3] [µM]
O=C(c1cc2ccccc2o1)N1CCN(C(=O)Nc2ccc(F)cc2)C(c2ccccc2)C1 (stereo not drawn),99,88,12.5
CC1CN(C(=O)OC(C)(C)C)CCN1C(=S)Nc1ccc([N+](=O)[O-])cc1 (stereo not drawn),100,< 20,26.3
CC1CN(C(=O)OC(C)(C)C)CCN1C(=O)Nc1ccc(C(F)(F)F)cc1 (stereo not drawn),31,57,137
CC1CN(C(=O)C(C)(C)C)CCN1C(=S)Nc1ccc([N+](=O)[O-])cc1 (stereo not drawn),64,< 20,
COc1ccccc1NC(=O)N1CCN(C(=O)c2cc3ccccc3o2)CC1C (stereo not drawn),16,0,
CC(C)(C)OC(=O)N1CCN(C(=O)Nc2ccc(C(F)(F)F)cc2)C(c2ccccc2)C1 (stereo not drawn),71,75,42.1
CC1CN(C(=O)C(C)(C)C)CCN1C(=O)c1ccc([N+](=O)[O-])cc1 (stereo not drawn),23,< 20,
COc1ccc(NC(=O)N2CCN(C(=O)OC(C)(C)C)CC2C)cc1 (stereo not drawn),49,,
COc1ccc(NC(=O)N2CCN(C(=O)C(C)(C)C)CC2c2ccccc2)cc1 (stereo not drawn),70,0,199
CC1CN(C(=O)OC(C)(C)C)CCN1C(=O)Nc1ccc(Cl)c(C(F)(F)F)c1 (stereo not drawn),100,72,20.8
COc1ccc(C(=O)N2CCN(C(=O)OC(C)(C)C)CC2C)cc1 (stereo not drawn),34,< 20,
O=C(c1cc2ccccc2o1)N1CCN(C(=O)Nc2ccc(C(F)(F)F)cc2)C(c2ccccc2)C1 (stereo not drawn),100,61,70.7
Cc1ccc(NC(=O)N2CCN(C(=O)OC(C)(C)C)CC2c2ccccc2)cc1 (stereo not drawn),63,65,165
CC(C)(C)OC(=O)N1CCN(C(=O)Nc2ccccc2[N+](=O)[O-])C(c2ccccc2)C1 (stereo not drawn),100,62,82.2
CC1CN(C(=O)c2cc3ccccc3o2)CCN1C(=O)Nc1ccc(C#N)cc1 (stereo not drawn),83,78,118
CC1CN(C(=O)c2ccccc2)CCN1C(=S)Nc1ccc([N+](=O)[O-])cc1 (stereo not drawn),94,41,31.4
CC1CN(C(=O)OC(C)(C)C)CCN1C(=O)Nc1ccc([N+](=O)[O-])cc1 (stereo not drawn),91,65,143
CC1CN(C(=O)OC(C)(C)C)CCN1C(=O)Nc1ccc(Cl)cc1 (stereo not drawn),62,37,150
CC(C)(C)OC(=O)N1CCN(C(=O)Nc2cc(C(F)(F)F)ccc2Cl)C(c2ccccc2)C1 (stereo not drawn),100,89,93.4
CC1CN(C(=O)OC(C)(C)C)CCN1C(=O)Nc1ccccc1[N+](=O)[O-] (stereo not drawn),50,0,
CC1CN(C(=O)c2cc3ccccc3o2)CCN1C(=O)Nc1ccc(C(F)(F)F)cc1 (stereo not drawn),92,60,82.2
CC1CN(C(=O)c2cc3ccccc3o2)CCN1C(=O)Nc1ccc(Cl)cc1 (stereo not drawn),70,36,144
CC(C)(C)C(=O)N1CCN(C(=O)Nc2ccc([N+](=O)[O-])cc2)C(c2ccccc2)C1 (stereo not drawn),44,60,102

SMILES,inhibition at 10 µM (Human adenovirus 5 [1]) [%],inhibition at 50 µM (Human adenovirus 5 [2]) [%],CC50 at 48 h [3] [µM]
CC1CN(C(=O)C(C)(C)C)CCN1C(=O)Nc1ccc([N+](=O)[O-])cc1 (stereo not drawn),0,50,
COc1ccc(NC(=O)N2CCN(C(=O)c3cc4ccccc4o3)CC2C)cc1 (stereo not drawn),34,< 20,
COc1ccc(NC(=O)N2CCN(C(=O)C(C)(C)C)CC2C)cc1 (stereo not drawn),0,< 20,
CC(C)(C)OC(=O)N1CCN(C(=O)Nc2ccc(Cl)cc2)C(c2ccccc2)C1 (stereo not drawn),86,96,17.1
CC1CN(C(=O)c2cc3ccccc3o2)CCN1C(=O)Nc1ccc(F)cc1 (stereo not drawn),92,0,220
CC(C)(C)OC(=O)N1CCN(C(=O)Nc2ccc(C#N)cc2)C(c2ccccc2)C1 (stereo not drawn),67,45,91.3
CC1CN(C(=O)c2cc3ccccc3o2)CCN1C(=O)Nc1ccc([N+](=O)[O-])cc1 (stereo not drawn),94,86,51.1
CC(C)(C)OC(=O)N1CCN(C(=O)Nc2ccc(F)cc2)C(c2ccccc2)C1 (stereo not drawn),76,70,110
COc1ccc(C(=O)N2CCN(C(=O)c3ccccc3)CC2C)cc1 (stereo not drawn),0,0,
COc1ccc(NC(=O)N2CCN(C(=O)OC(C)(C)C)CC2c2ccccc2)cc1 (stereo not drawn),79,39,133
COc1ccc(NC(=O)N2CCN(C(=O)c3ccccc3)CC2C)cc1 (stereo not drawn),0,50,
CC1CN(C(=O)c2cc3ccccc3o2)CCN1C(=O)Nc1ccc(F)cc1F (stereo not drawn),34,0,
CC1CN(C(=O)c2ccccc2)CCN1C(=O)Nc1ccc([N+](=O)[O-])cc1 (stereo not drawn),72,50,
CC1CN(C(=O)OC(C)(C)C)CCN1C(=O)c1ccc([N+](=O)[O-])cc1 (stereo not drawn),34,< 20,
CC(C)(C)OC(=O)N1CCN(C(=O)Nc2ccc(Cl)c(C(F)(F)F)c2)C(c2ccccc2)C1 (stereo not drawn),100,93,27.5
CC1CN(C(=O)c2cc3ccccc3o2)CCN1C(=O)Nc1ccccc1Br (stereo not drawn),56,44,
CC1CN(C(=O)c2cc3ccccc3o2)CCN1C(=O)Nc1ccccc1[N+](=O)[O-] (stereo not drawn),91,0,203
COc1ccc(C(=O)N2CCN(C(=O)C(C)(C)C)CC2C)cc1 (stereo not drawn),0,< 20,
CC(C)(C)C(=O)N1CCN(C(=O)Nc2ccc(C#N)cc2)C(c2ccccc2)C1 (stereo not drawn),84,74,147
CC1CN(C(=O)c2cc3ccccc3o2)CCN1C(=O)Nc1ccccc1 (stereo not drawn),11,0,
CC1CN(C(=O)c2cc3ccccc3o2)CCN1C(=O)Nc1ccccc1F (stereo not drawn),51,0,
CC1CN(C(=O)OC(C)(C)C)CCN1C(=O)Nc1cc(C(F)(F)F)ccc1Cl (stereo not drawn),96,31,63.5
CC1CN(C(=O)c2ccccc2)CCN1C(=O)c1ccc([N+](=O)[O-])cc1 (stereo not drawn),0,< 20,
